Among the data in PubChem BioAssay (NCI) are GI50 and TGI values, retold here.

The structures appear in SMILES notation.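 How tested: cells in 96-well plates exposed to compound for 48 hours at five concentrations. GI50: concentration for 50% inhibition of growth. TGI is the concentration that stops growth completely.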

Experiment in all cases: NCI-60 cell line screen, 48 h
In test [1] the test system is ACHN renal.
Test [2] concerns HT29 colon.
Test [3] relates to HOP-62 NSCLC.
Test [4] has as its system RPMI-8226 leukemia.
Test [5] concerns NCI-H460 lung.
In test [6] the test system is 786-0 renal.
The test system of test [7] is U251 CNS.
Test [8] has as its system UACC-257 melanoma.
In test [9] the test system is SK-MEL-28 melanoma.
In test [10] the test system is MDA-MB-231 breast.

For the compound `[CH3][Sn]([CH3])([CH3])[O]C(=O)C(O)c1ccccc1` (centres undefined), the GI50 in [1] was 4.27 µM; in [2], 3.45 µM; in [3], 2.12 µM; in test [4] it was 3.38 µM; in test [5], 3.9 µM; in [6] it was 4.81 µM. For the same compound, the GI50 is 5.84 µM in test [7], 4.25 µM in [8], 8.55 µM in test [9] and 39.2 µM in test [10]. The TGI in test [1] is greater than 100 µM; in test [2] it was 31.6 µM; in test [3], 4.4 µM; in test [4], greater than 44.2 µM; in [5] it was greater than 69.8 µM; in test [6], greater than 100 µM. The TGI is greater than 95.3 µM in test [7], greater than 41.7 µM in test [8], greater than 100 µM in [9] and greater than 100 µM in test [10].
On to `C/C(=C\CCc1ccsc1)CC/C=C(\C)CCCN1CCN(CCO)CC1`, for which the GI50 in test [1] was 4.67 µM; in [2] it was 2.04 µM; in test [3], 2.6 µM; in [4], 1.92 µM; in [5], 1.96 µM; in test [6] it was 2.27 µM. Further, the GI50 in test [7] is 2.27 µM; in [8], 4.57 µM; in test [9], 1.87 µM; in test [10], 1.6 µM. Also, the TGI is 17.4 µM in [1]; 5.01 µM in [2]; 6.4 µM in test [3]; 4.57 µM in test [4]; 3.79 µM in test [5]; 5.35 µM in [6]. Besides, the TGI was determined as 7.28 µM in test [7], 16 µM in test [8], 3.91 µM in test [9] and 4.18 µM in [10].
Regarding `Cc1ccc2c(n1)C(=O)C(Cl)=C(Nc1ccc(N3CCN(C)CC3)cc1)C2=O`, the GI50 in [1] is 1.75 µM; in test [2], 2.19 µM; in [3] it was 3.63 µM; in test [4], 2.68 µM; in test [5] it was 3.74 µM; in test [6], 1.71 µM. For the same compound, the GI50 was 1.79 µM in [7], 1.7 µM in test [8], 1.88 µM in [9] and 1.73 µM in test [10]. For the same compound, the TGI in [1] is 3.13 µM; in test [2], 4.92 µM; in test [3], 14.7 µM; in [4], 7.28 µM; in test [5], 15.7 µM; in test [6], 3.1 µM. For the same compound, the TGI in test [7] came out at 3.19 µM; in test [8], 3.11 µM; in [9] it was 3.31 µM; in test [10], 3.19 µM.
`Cc1ccn2c(-c3csc(Nc4cccc(O)c4)n3)c(C)nc2c1`: the GI50 in [1] was 0.812 µM; in test [2], 4.13 µM; in test [3], 0.638 µM; in test [4] it was 0.422 µM; in [5], 0.423 µM; in [6], 1.8 µM. Moreover, the GI50 is 0.681 µM in [7], 3.48 µM in test [8], 1.51 µM in test [9] and 0.751 µM in [10]. In addition, the TGI is greater than 100 µM in [1]; 18 µM in test [2]; 19.1 µM in [3]; 5.02 µM in [4]; 16.9 µM in test [5]; 8.81 µM in [6]. Also, the TGI stood at 10.3 µM in test [7], 19.6 µM in test [8], 36.3 µM in test [9] and 11.6 µM in test [10].
Consider `O=C(NCCSSCCNC(=O)/C(Cc1ccc(O)c(Br)c1)=N/O)/C(Cc1ccc(O)c(Br)c1)=N/O`, for which the TGI is 5.77 µM in test [1]; greater than 21.4 µM in test [2]; 6.1 µM in [3]; 5.35 µM in [4]; greater than 20.6 µM in [5]; 8.49 µM in test [6]. The TGI in test [7] is 4.53 µM; in [8] it was greater than 34.6 µM; in test [9], 16.3 µM; in [10] it was 8.26 µM.
As to `N#Cc1ccc(N2Cc3cc(Cl)ccc3OC3=C2C(=O)N(Cc2ccc(F)cc2)C3=O)cc1`, the GI50 in test [1] was 0.479 µM; in test [2], 0.587 µM; in [3] it was 2.72 µM; in test [4], 0.252 µM; in test [5] it was 1.02 µM; in test [6] it was 0.578 µM. Also, the GI50 in test [7] is 0.672 µM; in test [8], 0.556 µM; in [9] it was 0.558 µM; in test [10], 0.636 µM. In addition, the TGI in [1] amounted to 0.913 µM; in [2], 1.35 µM; in [3], 10.1 µM; in [4] it was 0.814 µM; in test [5], 3.71 µM; in [6], 1.27 µM. Further, the TGI in [7] is 1.68 µM; in test [8] it was 1.15 µM; in test [9], 1.13 µM; in test [10], 1.51 µM.
On to `Cc1cc2oc(=O)c(Cl)c(Cl)c2c(C)c1Cl`, for which the TGI in test [1] is 23.3 µM; in test [2] it was 22.8 µM; in test [3] it was 66 µM; in [4], 6 µM; in test [5] it was 59.9 µM; in test [6] it was 10.2 µM. The TGI came out at 8.45 µM in test [7], 30 µM in test [8], 28.9 µM in [9] and 28.7 µM in test [10].
With `Cc1ccc(-n2nnc3c(sc4ccccc43)c2=O)cc1`, the GI50 was 4.17 µM in test [1]; 3.59 µM in [2]; 3.8 µM in test [3]; 24 µM in test [4]; 4.19 µM in test [5]; 3.4 µM in test [6]. Further, the GI50 in test [7] is 3.38 µM; in test [8] it was greater than 100 µM; in test [9] it was greater than 100 µM; in [10], 4.04 µM. Also, the TGI is greater than 100 µM in [1]; greater than 100 µM in [2]; 26.5 µM in test [3]; greater than 100 µM in test [4]; greater than 100 µM in [5]; 12.1 µM in test [6]. The TGI in [7] is 19 µM; in test [8] it was greater than 100 µM; in test [9] it was greater than 100 µM; in test [10], greater than 100 µM.
In the case of `O=C1c2ccccc2-c2c1c1c(O)cccc1n2CCCc1ccccc1`, the GI50 in [1] was 14.1 µM; in [2] it was 42.8 µM; in test [3], 43 µM; in test [4], 13.7 µM; in test [5] it was 29.7 µM; in [6] it was 21 µM. In addition, the GI50 was 26.4 µM in [7], 19.7 µM in [8], greater than 100 µM in [9] and 70 µM in [10]. The TGI in test [1] is 66.9 µM; in [2], greater than 100 µM; in test [3], greater than 100 µM; in [4] it was 51.9 µM; in [5], greater than 100 µM; in test [6], 99.3 µM. Further, the TGI in [7] was greater than 100 µM; in test [8], 50.8 µM; in test [9] it was greater than 100 µM; in [10] it was greater than 100 µM.
Take `COc1ccc(-c2nnc(Nc3nc(O)c(C4=c5cc(OC(F)(F)F)ccc5=NC4=O)s3)o2)cc1`: the GI50 in test [1] was 22.3 µM; in [2] it was 71.4 µM; in test [3], 15.7 µM; in test [4] it was 14.2 µM; in test [5], 22 µM; in test [6], 11.2 µM. The GI50 in [7] was 12.4 µM; in test [8], 13.2 µM; in test [9], 17.8 µM; in test [10], 13.9 µM. Moreover, the TGI in [1] is greater than 100 µM; in [2], greater than 100 µM; in [3], 30.3 µM; in test [4] it was 37.2 µM; in test [5], greater than 100 µM; in test [6] it was 24.3 µM. Moreover, the TGI in test [7] is 30.7 µM; in test [8], 35.9 µM; in [9], greater than 100 µM; in test [10], 30.3 µM.
On to `Cc1ccc(NC(C(=O)c2ccccc2)c2ccccc2)cc1` (centres undefined), for which the GI50 in test [1] is 7.94 µM; in test [3], 9.75 µM; in test [4] it was 2.71 µM; in [5], 2.8 µM; in test [6], 4.02 µM; in test [7], 4.24 µM. Besides, the results for the GI50 in test [8], in test [9] and in [10] were 2.8 µM, 8.07 µM and 13 µM, respectively. The TGI is greater than 100 µM in test [1]; 39.1 µM in test [3]; 14.6 µM in test [4]; 11.8 µM in test [5]; 15.6 µM in [6]; 25.1 µM in test [7]. Also, the TGI is 8.42 µM in test [8], 37.3 µM in test [9] and greater than 100 µM in test [10].
Consider `Cc1cc(C(=O)N2CCN(C)CC2)c2c(=O)n(-c3ccccc3)c(=O)n(CC(O)CN3CCN(c4ncccn4)CC3)c2n1` (centres undefined), for which the GI50 in [1], in [2], in test [3], in test [4], in test [5] and in test [6] was greater than 100 µM each time. Also, the GI50 in test [7], in test [9] and in test [10] was greater than 100 µM in each case. In addition, the TGI in [1], in test [2], in [3], in test [4], in test [5] and in test [6] was greater than 100 µM throughout. Moreover, the TGI in test [7], in [9] and in test [10] was greater than 100 µM throughout.
As to `Cc1ccc(C2NC(=S)N3C(c4ccc(C)cc4)NC(=S)N23)cc1` (centres undefined), the GI50 in test [1] is 10.1 µM; in test [2] it was 2.58 µM; in test [3], 5.89 µM; in [5], 3.82 µM; in [6] it was 5.82 µM; in [7], 3.91 µM. Also, the GI50 is 10.3 µM in test [8], 11.5 µM in test [9] and 9.16 µM in test [10]. Besides, the TGI in test [1] was 21.7 µM; in test [2], 10.2 µM; in [3], 20.1 µM; in [5] it was 13.1 µM; in [6], 19.9 µM; in test [7] it was 14.3 µM. Moreover, the TGI in test [8] stood at 22.6 µM; in test [9], 24.2 µM; in test [10], 24 µM.
As to `Cc1cc(NS(=O)(=O)c2ccc(NC(=O)COc3ccc(-c4cc5ccccc5[nH]4)cc3)cc2)no1`, the GI50 in [1] was 2.44 µM; in [2] it was 1.73 µM; in test [3] it was 2.95 µM; in test [4], 2.87 µM; in test [6], 1.93 µM; in test [7], 1.86 µM. Moreover, the GI50 in [8] was 2.07 µM; in test [9], 1.55 µM; in [10], 1.66 µM. Also, the TGI in [1] was 6.9 µM; in test [2], 3.44 µM; in [3], 7.74 µM; in test [4], greater than 100 µM; in test [6] it was 3.65 µM; in test [7] it was 6.74 µM. For the same compound, the TGI in [8] was 6.27 µM; in test [9] it was 3.17 µM; in test [10] it was 4.37 µM.
For `Cc1cn(C2CC(N=[N+]=[N-])C(CO)O2)c(=O)[nH]c1=O` (centres undefined), the GI50 was greater than 1000 µM in [1]; greater than 1000 µM in test [3]; 20.4 µM in test [4]; greater than 1000 µM in test [6]; greater than 1000 µM in [8]; greater than 1000 µM in test [10]. For the same compound, the TGI is greater than 1000 µM in test [1]; greater than 1000 µM in test [2]; greater than 1000 µM in [3]; 184 µM in test [4]; greater than 1000 µM in test [6]; greater than 1000 µM in [8]. The TGI in [10] was greater than 1000 µM.
As for `CC[C@@]1(OC(=O)C(N)CCC(=O)O)C(=O)OCc2c1cc1n(c2=O)Cc2cc3ccccc3nc2-1` (some centres undefined), the TGI is 0.561 µM in test [1]; greater than 100 µM in test [2]; 0.125 µM in test [3]; 2.94 µM in [4]; 0.159 µM in test [6]; 1.98 µM in test [7]. Also, the figures for the TGI in test [8], in test [9] and in test [10] were 1.63 µM, 51.8 µM and 5.82 µM, respectively.
